Measured values published in patent US5550121A, “Aminoalkylpyrrolidinylthiocarbapenem derivatives” (priority 1991, dated 1996).
≈ marks a conversion by molar mass, not a printed value. Where two headings read alike, the source gives them in different places. Values belong to the compound of their own block, whether it stands above or below them.

Columns and labels:
P. aeruginosa MB5178 = experiment: in vitro antibacterial activity by agar plate dilution method (MIC); format: cell-based; conditions: Pseudomonas aeruginosa, MB5178, 16 h, read-out: Minimum Inhibitory Concentration (MIC)
Experimental: (§1) One platinum loopful of each test microorganism incubated overnight in Mueller Hinton broth, was inoculated to Mueller Hinton agar (inoculum size: 10^6 CFU/ml). Such culture media contained antibacterial agents in various concentrations. After incubation at 37° C. for 16 hours, the minimum inhibitory concentrations (MIC: μg/ml) were measured.
(§2) The minimum inhibitory concentrations and the DHP-I susceptibility of the compounds of the present invention were compared with imipenem and the compound of REFERENCE EXAMPLE 13.

P. aeruginosa MB5002 = experiment: as above; format: cell-based; conditions: Pseudomonas aeruginosa, read-out: Minimum Inhibitory Concentration (MIC)
Experimental: as §1, §2

[1] = due to the decomposition products; cited from earlier work
[2] = tested on: various gram positive bacteria and gram negative bacteria; conditions: cited from earlier work
[3] = tested on: renal dehydropeptidase I (DHP-I); experiment: DHP-I susceptibility (method by Kropp et al.), ratio to imipenem; format: in vitro ADME; conditions: ratio to imipenem (=1.0); the smaller the value, the higher the stability
Text: Further, the DHP-I susceptibility was quantitatively analyzed by the method by Kropp et al., Antimicrob. Agents Chemother., vol. 22, p. 62-70 (1982), whereby the smaller the numerical value representing the ratio to imipenem (=1.0), the higher the stability.
as §2

[4] = Pharmacokinetics in mice after s.c. dosing, bioassay of plasma and urine; conditions: mouse, sc, 20 mg/kg; for AUC / Cmax / Tmax / half-life: plasma; for dose excreted at 6 h: urine
Experimental: Pharmacokinetics in mice: Groups of three 20 g ddY male mice were given a single dose of 20 mg/kg of the compound of EXAMPLE 19 and imipenem by sc route. One group of three mice was placed in a metabolism cage designed to collect the urine free from fecal contamination. At a specified time after dosing, blood and urine samples were collected from a group for bioassay. The plasma was collected from the pooled blood after centrifugation. Microbiological assays: Bioactivity in the specimens was measured was by the standard disk diffusion procedure using Bacillus subtilis ATCC12432 as a test organism.

Pseudomonas aeruginosa = conditions: superior to thienamycin; cited from earlier work
[5] = tested on: highly methicillin resistant Staphylococcus aureus which is resistant to imipenem and imipenem resistant Pseudomonas aeruginosa; conditions: clinical field; cited from earlier work
[6] = imipenem compared with thienamycin; cited from earlier work
[7] = tested on: renal dehydropeptidase I (DHP-I); conditions: cited from earlier work
[8] = in vivo; cited from earlier work
[9] = P. aeruginosa MB5178, Mueller Hinton agar, inoculum 10^6 CFU/ml, 37° C., 16 hours
[10] = P. aeruginosa MB5002, Mueller Hinton agar, inoculum 10^6 CFU/ml, 37° C., 16 hours

SMILES: C[C@@H](O)[C@H]1C(=O)N2C(C(=O)O)=C(SCCN=CN)C[C@H]12 [Imipenem, (5R,6S,8R)-3-[[2-(formimidoylamino)ethyl]thio]-6-(1-hydroxyethyl)-7-oxo-1-azabicyclo[3.2.0]hept-2-en-2-carboxylic acid monohydrate]
MIC (P. aeruginosa MB5178): 25 µg/mL
MIC (P. aeruginosa MB5002; MB5002, 16 h): 1.56 µg/mL
toxicity against the kidney [1]: presents toxicity against the kidney due to the decomposition products
antibacterial activities compared with thienamycin ([2]; various types of bacteria): equal or higher level than thienamycin
DHP-I susceptibility [3]: 1.0
AUC [4]: 9500 ng·h/mL
Cmax [4]: 21500 ng/mL
Tmax [4]: 10.8 min
half-life [4]: 7.2 min
dose excreted at 6 h [4]: 21.5%
antibacterial activities compared with thienamycin (Pseudomonas aeruginosa): 2 to 4 times
treating effects against resistant bacteria [5]: does not show adequate treating effects
stability in the solid form or in an aqueous solution [6]: remarkably improved over thienamycin
decomposition by DHP-I [7]: likely to be decomposed by DHP-I in the human kidney

SMILES: C[C@@H](O)[C@H]1C(=O)N2C(C(=O)O)=C(SCCN)C[C@H]12 [thienamycin]
antibacterial activities ([2]; statement in words, prior art): strong antibacterial activities over a wide range against gram positive bacteria and gram negative bacteria
recovery rate in the urine [8]: low
decomposition by DHP-I [7]: likely to be decomposed

SMILES: CC(CN)C[C@@H]1C[C@H](SC2=C(C(=O)O)N3C(=O)[C@H]([C@@H](C)O)[C@H]3[C@H]2C)CN1 (single isomer, unassigned) [Example 7]
MIC (P. aeruginosa MB5002; [10]): 0.78 µg/mL (≈ 2.03 µM)

More lines, now with the values ahead:

MIC (P. aeruginosa MB5178; [9]): 12.5 µg/mL (≈ 32.6 µM)
MIC (P. aeruginosa MB5002; [10]): 6.25 µg/mL (≈ 16.3 µM)
DHP-I susceptibility [3]: 0.7
SMILES: CC(=O)NC[C@@H]1C[C@H](SC2=C(C(=O)O)N3C(=O)[C@H]([C@@H](C)O)[C@H]3[C@H]2C)CN1 [compound 13, (1R,5S,6S)-2-[(2S,4S)-2-(Acetylaminomethyl)pyrrolidin-4-ylthio]-6-[(1R)-1-hydroxyethyl]-1-methyl-1-carbapen-2-em-3-carboxylic Acid]

MIC (P. aeruginosa MB5178; [9]): 3.13 µg/mL (≈ 8.43 µM)
MIC (P. aeruginosa MB5002; [10]): 1.56 µg/mL (≈ 4.2 µM)
SMILES: C[C@@H](O)[C@H]1C(=O)N2C(C(=O)O)=C(S[C@@H]3CN[C@H](C(O)CN)C3)[C@H](C)[C@H]12 (single isomer, unassigned) [Example 13]

AUC [4]: 13800 ng·h/mL
Cmax [4]: 29000 ng/mL
Tmax [4]: 10.8 min
half-life [4]: 7.8 min
dose excreted at 6 h [4]: 62.5%
SMILES: CNCC[C@@H](O)[C@@H]1C[C@H](SC2=C(C(=O)O)N3C(=O)[C@H]([C@@H](C)O)[C@H]3[C@H]2C)CN1 [Example 19]

MIC (P. aeruginosa MB5178; [9]): 1.56 µg/mL (≈ 4.05 µM)
MIC (P. aeruginosa MB5002; [10]): 0.78 µg/mL (≈ 2.02 µM)
SMILES: C[C@@H](O)[C@H]1C(=O)N2C(C(=O)O)=C(S[C@@H]3CN[C@H](C(O)CCN)C3)[C@H](C)[C@H]12 (single isomer, unassigned) [Example 9]
